Tested on: angiotensin II (AII) vasopressor response
Test: AII challenge: antagonism of the vasopressor response of angiotensin II in conscious Okamoto-Aoki SHR
Type: in vivo, rat (Okamoto-Aoki SHR)
Conditions: for inhibition in vivo at 1 mg/kg / inhibition in vivo at 10 mg/kg / inhibition in vivo at 2 mg/kg / inhibition in vivo at 30 mg/kg / inhibition in vivo at 5 mg/kg / inhibition in vivo at 3 mg/kg / inhibition in vivo at 6 mg/kg: Rattus norvegicus; for inhibition in vivo at 1 mg/kg / inhibition in vivo at 10 mg/kg / inhibition in vivo at 2 mg/kg / inhibition in vivo at 30 mg/kg / inhibition in vivo at 3 mg/kg / inhibition in vivo at 6 mg/kg: iv; for inhibition in vivo at 5 mg/kg: po; for inhibition in vivo at 3 mg/kg: 3 mg/kg iv
Source text: Conscious Male Okamoto-Aoki SHR, 16-20 weeks old, weighing approximately 330 g are purchased from Charles River Labs (Wilmington, Mass.). Conscious rats are restrained in a supine position with elastic tape. The area at the base of the tail is locally anesthetized by subcutaneous infiltration with 2% procaine. The ventral caudal artery and vein are isolated, and a cannula made of polyethylene (PE) 10-20 tubing (fused together by heat) is passed into the lower abdominal aorta and vena cava, respectively. The cannula is secured, heparinized (1,000 I.U./ml), sealed and the wound is closed. The animals are placed in plastic restraining cages in an upright position. The cannula is attached to a Statham P23Db pressure transducer, and pulsatile blood pressure is recorded to 10-15 minutes with a Gould Brush recorder.
Angiotensin II (human sequence, Sigma Chem. Co., St. Louis, Mo.) of 0.05 and 0.1 ug/kg i.v. is injected into all rats (predosing response). Then a test compound, vehicle or a known angiotensin II antagonist is administered i.v., i.p. or orally to each set of rats. […] The vasopressor response of angiotensin II is measured for the increase in systolic blood pressure in mmHg. The percentage of antagonism or blockade of the vasopressor response of angiotensin II by a compound is calculated using the vasopressor response (increase in systolic blood pressure) of angiotensin II of each rat predosing the compound as 100%.

[1] = 1 mg/kg iv, AII .1 ug/kg, 30 min
[2] = 2 mg/kg iv, AII .05 ug/kg, 180 min
[3] = 0.5 h, 1 mg/kg iv, AII .05 ug/kg, 30 min
[4] = 0.5 h, 1 mg/kg iv, AII .1 ug/kg, 30 min
[5] = 0.75 h, 1 mg/kg iv, AII .05 ug/kg, 45 min
[6] = 0.75 h, 1 mg/kg iv, AII .1 ug/kg, 45 min
[7] = 1.5 h, 1 mg/kg iv, AII .05 ug/kg, 90 min
[8] = 1.5 h, 1 mg/kg iv, AII .1 ug/kg, 90 min
[9] = 1.5 h, 10 mg/kg iv, AII .05 ug/kg, 90 min
[10] = 2 h, 2 mg/kg iv, AII .05 ug/kg, 120 min
[11] = 2 h, 2 mg/kg iv, AII .1 ug/kg, 120 min
[12] = 2.5 h, 2 mg/kg iv, AII .05 ug/kg, 150 min
[13] = 2.5 h, 2 mg/kg iv, AII .1 ug/kg, 150 min
[14] = 3 h, 2 mg/kg iv, AII .05 ug/kg, 180 min
[15] = 3 h, 2 mg/kg iv, AII .1 ug/kg, 180 min
[16] = 0.5 h, 5 mg/kg oral, AII .05 ug/kg, 30 min
[17] = 0.5 h, 5 mg/kg oral, AII .1 ug/kg, 30 min
[18] = 1.5 h, 5 mg/kg oral, AII .05 ug/kg, 90 min
[19] = 1.5 h, 5 mg/kg oral, AII .1 ug/kg, 90 min
[20] = 2.5 h, 5 mg/kg oral, AII .05 ug/kg, 150 min
[21] = 2.5 h, 5 mg/kg oral, AII .1 ug/kg, 150 min

CCCCc1nc2ccc(C(C)O)cc2c(=O)n1Cc1ccc(-c2ccccc2-c2nnn[nH]2)cc1 (stereo not drawn) [Example 49, 2-Butyl-6-(1-hydroxyethyl)-3-[[2'-(1H-tetrazol-5-yl)-[1,1'-biphenyl]-4-yl]methyl]-4(3H)-quinazolinone]
Response change (systolic BP increase to AII) (1 mg/kg iv, AII .05 ug/kg, 30 min): 27 mmHg
Response change (systolic BP increase to AII) (1 mg/kg iv, AII .05 ug/kg, 45 min): 25 mmHg
Response change (systolic BP increase to AII) (1 mg/kg iv, AII .05 ug/kg, 90 min): 40 mmHg
Response change (systolic BP increase to AII) [1]: 40 mmHg
Response change (systolic BP increase to AII) (1 mg/kg iv, AII .1 ug/kg, 45 min): 25 mmHg
Response change (systolic BP increase to AII) (1 mg/kg iv, AII .1 ug/kg, 90 min): 40 mmHg
Response change (systolic BP increase to AII) (2 mg/kg iv, AII .05 ug/kg, 120 min): 10 mmHg
Response change (systolic BP increase to AII) (2 mg/kg iv, AII .05 ug/kg, 150 min): 35 mmHg
Response change (systolic BP increase to AII) [2]: 50 mmHg
Response change (systolic BP increase to AII) (2 mg/kg iv, AII .1 ug/kg, 120 min): 35 mmHg
Response change (systolic BP increase to AII) (2 mg/kg iv, AII .1 ug/kg, 150 min): 40 mmHg
Response change (systolic BP increase to AII) (2 mg/kg iv, AII .1 ug/kg, 180 min): 55 mmHg
Response change (systolic BP increase to AII) (10 mg/kg iv, AII .05 ug/kg, 30 min): 0 mmHg
Response change (systolic BP increase to AII) (10 mg/kg iv, AII .05 ug/kg, 90 min): 0 mmHg
Response change (systolic BP increase to AII) (10 mg/kg iv, AII .1 ug/kg, 30 min): 0 mmHg
inhibition in vivo at 1 mg/kg [3]: 40%
inhibition in vivo at 1 mg/kg [4]: 27%
inhibition in vivo at 10 mg/kg (0.5 h, 10 mg/kg iv, AII .05 ug/kg, 30 min): 100%
inhibition in vivo at 10 mg/kg (0.5 h, 10 mg/kg iv, AII .1 ug/kg, 30 min): 100%
inhibition in vivo at 1 mg/kg [5]: 45%
inhibition in vivo at 1 mg/kg [6]: 55%
inhibition in vivo at 1 mg/kg [7]: 11%
inhibition in vivo at 1 mg/kg [8]: 27%
inhibition in vivo at 10 mg/kg [9]: 100%
inhibition in vivo at 2 mg/kg [10]: 78%
inhibition in vivo at 2 mg/kg [11]: 36%
inhibition in vivo at 2 mg/kg [12]: 23%
inhibition in vivo at 2 mg/kg [13]: 27%
inhibition in vivo at 2 mg/kg [14]: 11%
inhibition in vivo at 2 mg/kg [15]: 0%

CCCCc1nc2ccccc2c(=O)n1Cc1ccc(-c2ccccc2-c2nnn[nH]2)cc1 [Example 50]
Response change (systolic BP increase to AII) (30 mg/kg iv, AII .05 ug/kg, 90 min): 30 mmHg
inhibition in vivo at 30 mg/kg (0.5 h, 30 mg/kg iv, AII .05 ug/kg, 30 min): 82%
inhibition in vivo at 30 mg/kg (0.5 h, 30 mg/kg iv, AII .1 ug/kg, 30 min): 76%
inhibition in vivo at 30 mg/kg (1.5 h, 30 mg/kg iv, AII .05 ug/kg, 90 min): 29%
inhibition in vivo at 30 mg/kg (1.5 h, 30 mg/kg iv, AII .1 ug/kg, 90 min): 52%
inhibition in vivo at 30 mg/kg (2.5 h, 30 mg/kg iv, AII .05 ug/kg, 150 min): 41%
inhibition in vivo at 30 mg/kg (2.5 h, 30 mg/kg iv, AII .1 ug/kg, 150 min): 48%

CCCCc1nc2ccc(C(C)(C)O)cc2c(=O)n1Cc1ccc(-c2ccccc2-c2nnn[nH]2)cc1 [Example 51, 2-butyl-6-(1-hydroxy-1-methylethyl)-3-[[2'-(1H-tetrazol-5-yl)-[1,1'-biphenyl]-4-yl]methyl]-4(3H)-quinazolinone]
inhibition in vivo at 5 mg/kg [16]: 30%
inhibition in vivo at 5 mg/kg [17]: 26%
inhibition in vivo at 5 mg/kg [18]: 75%
inhibition in vivo at 5 mg/kg [19]: 55%
inhibition in vivo at 5 mg/kg [20]: 63%
inhibition in vivo at 5 mg/kg [21]: 46%

CCCCc1nc2ccc(C(O)CC)cc2c(=O)n1Cc1ccc(-c2ccccc2-c2nnn[nH]2)cc1 (stereo not drawn) [Example 52]
Response change (systolic BP increase to AII) (5 mg/kg oral, AII .05 ug/kg, 30 min): 25 mmHg
Response change (systolic BP increase to AII) (5 mg/kg oral, AII .05 ug/kg, 150 min): 15 mmHg
inhibition in vivo at 5 mg/kg [16]: 52%
inhibition in vivo at 5 mg/kg [17]: 43%
inhibition in vivo at 5 mg/kg [18]: 66%
inhibition in vivo at 5 mg/kg [19]: 63%
inhibition in vivo at 5 mg/kg [20]: 71%
inhibition in vivo at 5 mg/kg [21]: 60%

CCCCc1nc2ccc(CO)cc2c(=O)n1Cc1ccc(-c2ccccc2-c2nnn[nH]2)cc1 [Example 53]
Response change (systolic BP increase to AII) (6 mg/kg iv, AII .025 ug/kg, 30 min): 15 mmHg
Response change (systolic BP increase to AII) (6 mg/kg iv, AII .025 ug/kg, 90 min): 10 mmHg
inhibition in vivo at 3 mg/kg (10 min, AII .05 ug/kg): 62%
inhibition in vivo at 3 mg/kg (10 min, AII .1 ug/kg): 42%
inhibition in vivo at 10 mg/kg (10 min, 10 mg/kg iv, AII .05 ug/kg): 83%
inhibition in vivo at 10 mg/kg (10 min, 10 mg/kg iv, AII .1 ug/kg): 90%
inhibition in vivo at 3 mg/kg (0.5 h, AII .025 ug/kg, 30 min): 53%
inhibition in vivo at 6 mg/kg (0.5 h, 6 mg/kg iv, AII .025 ug/kg, 30 min): 50%
inhibition in vivo at 10 mg/kg (0.5 h, 10 mg/kg iv, AII .05 ug/kg, 30 min, second 30/60/90 series): 76%
inhibition in vivo at 10 mg/kg (0.5 h, 10 mg/kg iv, AII .1 ug/kg, 30 min, second 30/60/90 series): 60%
inhibition in vivo at 3 mg/kg (1 h, AII .05 ug/kg, 60 min): 30%
inhibition in vivo at 3 mg/kg (1 h, AII .1 ug/kg, 60 min): 13%
inhibition in vivo at 10 mg/kg (1 h, 10 mg/kg iv, AII .05 ug/kg, 60 min, second 30/60/90 series): 46%
inhibition in vivo at 10 mg/kg (1 h, 10 mg/kg iv, AII .1 ug/kg, 60 min, second 30/60/90 series): 44%
inhibition in vivo at 3 mg/kg (1.5 h, AII .025 ug/kg, 90 min): 47%
inhibition in vivo at 3 mg/kg (1.5 h, AII .1 ug/kg, 90 min): 13%
inhibition in vivo at 6 mg/kg (1.5 h, 6 mg/kg iv, AII .1 ug/kg, 90 min): 30%
inhibition in vivo at 10 mg/kg [9]: 41%
inhibition in vivo at 10 mg/kg (1.5 h, 10 mg/kg iv, AII .05 ug/kg, 90 min, second 30/60/90 series): 35%
inhibition in vivo at 10 mg/kg (1.5 h, 10 mg/kg iv, AII .1 ug/kg, 90 min): 56%
inhibition in vivo at 10 mg/kg (1.5 h, 10 mg/kg iv, AII .1 ug/kg, 90 min, second 30/60/90 series): 26%

CCCCc1nc2ccc(C(O)c3ccccc3)cc2c(=O)n1Cc1ccc(-c2ccccc2-c2nnn[nH]2)cc1 (stereo not drawn) [Example 54]
Response change (systolic BP increase to AII) [1]: 35 mmHg
Response change (systolic BP increase to AII) [2]: 17 mmHg
Response change (systolic BP increase to AII) (5 mg/kg oral, AII .05 ug/kg, 180 min): 25 mmHg
Response change (systolic BP increase to AII) (5 mg/kg oral, AII .1 ug/kg, 180 min): 48 mmHg
inhibition in vivo at 1 mg/kg [3]: 47%
inhibition in vivo at 1 mg/kg [4]: 30%
inhibition in vivo at 1 mg/kg [5]: 75%
inhibition in vivo at 1 mg/kg [6]: 28%
inhibition in vivo at 1 mg/kg [7]: 49%
inhibition in vivo at 1 mg/kg [8]: 34%
inhibition in vivo at 2 mg/kg [10]: 85%
inhibition in vivo at 2 mg/kg [11]: 64%
inhibition in vivo at 2 mg/kg [12]: 67%
inhibition in vivo at 2 mg/kg [13]: 54%
inhibition in vivo at 2 mg/kg [14]: 69%
inhibition in vivo at 2 mg/kg [15]: 50%
inhibition in vivo at 5 mg/kg (3 h, 5 mg/kg oral, AII .05 ug/kg, 180 min): 55%
inhibition in vivo at 5 mg/kg (3 h, 5 mg/kg oral, AII .1 ug/kg, 180 min): 26%

Source: US5405849A, “Angiotensin II receptor blocking 2,3,6 substituted quinazolinones” (American Cyanamid Company, priority 1993, dated 1995)
